Assay results taken from publication PMC5908784, “Extracellular loops 2 and 3 of the calcitonin receptor selectively modify agonist binding and efficacy” (Biochemical Pharmacology, 2018).
Numbering of substitutions follows the chain as printed. Where a SMILES comes first, the peptide text is derived from it. Bridges are numbered along the chain shown (N, C = ends).

Key:
Assay in all cases: Heterologous whole cell competition binding
Conditions in all cases: heterologous competition of 125I-sCT(8-32), whole cells, mean ± S.E.M., SEM
hCTR L291A = molecular target: T1, hCTR L291A (Homo sapiens, UniProt P30988, L291A)
T1 construct: expressed in transfected cells
T1 sequence (P30988 25-474 L291A): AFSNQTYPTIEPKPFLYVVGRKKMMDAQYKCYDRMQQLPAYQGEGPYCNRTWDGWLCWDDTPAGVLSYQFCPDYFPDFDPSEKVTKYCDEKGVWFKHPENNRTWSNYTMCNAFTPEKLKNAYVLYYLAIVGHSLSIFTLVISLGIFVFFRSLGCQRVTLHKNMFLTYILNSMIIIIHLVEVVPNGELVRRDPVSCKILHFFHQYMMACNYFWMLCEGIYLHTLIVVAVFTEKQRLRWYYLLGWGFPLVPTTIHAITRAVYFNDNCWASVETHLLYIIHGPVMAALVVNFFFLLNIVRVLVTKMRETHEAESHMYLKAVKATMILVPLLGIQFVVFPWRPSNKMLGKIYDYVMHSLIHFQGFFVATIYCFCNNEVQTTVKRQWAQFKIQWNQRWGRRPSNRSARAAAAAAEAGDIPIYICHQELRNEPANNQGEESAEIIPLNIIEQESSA
How it was run: (§1)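 Steps: overnight co-incubation of cells, tracer and test ligand; washout of unbound label; gamma counting; Cheng-Prusoff conversion to pKi.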

hCTR T295A = molecular target: T2, hCTR T295A (Homo sapiens, UniProt P30988, T295A)
T2 construct: c-Myc (N); expressed in transfected cells
T2 sequence (P30988 25-474 T295A): T1 sequence (P30988 25-474 L291A) with A267L, T271A
How it was run: as §1

hCTR P363A = molecular target: T3, hCTR P363A (Homo sapiens, UniProt P30988, P363A)
T3 construct: expressed in transfected cells
T3 sequence (P30988 25-474 P363A): T1 sequence (P30988 25-474 L291A) with A267L, P339A
How it was run: as §1

hCTR K366A = molecular target: T4, hCTR K366A (Homo sapiens, UniProt P30988, K366A)
T4 construct: c-Myc (N); expressed in transfected cells
T4 sequence (P30988 25-474 K366A): T1 sequence (P30988 25-474 L291A) with A267L, K342A
How it was run: as §1

hCTR P360A = molecular target: T5, hCTR P360A (Homo sapiens, UniProt P30988, P360A)
T5 construct: expressed in transfected cells
T5 sequence (P30988 25-474 P360A): T1 sequence (P30988 25-474 L291A) with A267L, P336A
How it was run: as §1

CSCC[C@H](NC(=O)CNC(=O)[C@H](CO)NC(=O)[C@H](Cc1ccccc1)NC(=O)[C@H](CCCNC(=N)N)NC(=O)[C@H](Cc1c[nH]cn1)NC(=O)[C@H](Cc1ccccc1)NC(=O)[C@H](CC(N)=O)NC(=O)[C@H](CC(N)=O)NC(=O)[C@H](CC(C)C)NC(=O)[C@H](CC(N)=O)NC(=O)[C@H](CCCNC(=N)N)NC(=O)[C@H](Cc1c[nH]c2ccccc12)NC(=O)[C@H](Cc1ccc(O)cc1)NC(=O)[C@H](C)NC(=O)[C@H](CO)NC(=O)[C@H](CC(C)C)NC(=O)[C@@H](NC(=O)[C@@H]1CSSC[C@H](N)C(=O)N[C@@H](CO)C(=O)N[C@@H](CC(N)=O)C(=O)N[C@@H](CC(C)C)C(=O)N[C@@H](CO)C(=O)N[C@@H]([C@@H](C)O)C(=O)N1)C(C)C)C(=O)NCC(=O)N[C@@H](Cc1ccccc1)C(=O)NCC(=O)N1CCC[C@H]1C(=O)N[C@@H](CCC(=O)O)C(=O)N[C@H](C(=O)N1CCC[C@H]1C(N)=O)[C@@H](C)O [pCT] (H-CSNLSTCVLSAYWRNLNNFHRFSGMGFGPETP-NH2; disulfide 1-7)
Ki (hCTR L291A): 67.6 nM
Ki (hCTR T295A): 32.4 nM
Ki (hCTR P363A): 55 nM
Ki (hCTR K366A): 11 nM
Ki (hCTR P360A): 50.1 nM
